Measured values: paper PMC8155022 (Scientific Reports, 2021)
Entries after “also recorded” stand apart in the source; their conditions may differ.

Assays:
PPARβ = target: T1, PPARβ (Homo sapiens, UniProt Q03181); test: nuclear receptor cellular GAL4 reporter assay; format: cell-based; conditions: agonist and antagonist mode; read-out: potency in agonist and antagonist mode
T1 construct: expressed in transfected cells

RXRα = target: T2, RXRα (Homo sapiens, UniProt P19793); test: nuclear receptor cellular GAL4 reporter assay; format: cell-based; conditions: agonist and antagonist mode; read-out: potency in agonist and antagonist mode
T2 construct: expressed in transfected cells

beta 1 (h) = target: T3, beta 1 (h) (Homo sapiens, UniProt P08588); test: Cerep panel; format: binding
T3 construct: purchased Cerep (receptors, ion channels, transporters); Eurofins Panlabs (kinases)
T3 sequence (P08588 whole entry): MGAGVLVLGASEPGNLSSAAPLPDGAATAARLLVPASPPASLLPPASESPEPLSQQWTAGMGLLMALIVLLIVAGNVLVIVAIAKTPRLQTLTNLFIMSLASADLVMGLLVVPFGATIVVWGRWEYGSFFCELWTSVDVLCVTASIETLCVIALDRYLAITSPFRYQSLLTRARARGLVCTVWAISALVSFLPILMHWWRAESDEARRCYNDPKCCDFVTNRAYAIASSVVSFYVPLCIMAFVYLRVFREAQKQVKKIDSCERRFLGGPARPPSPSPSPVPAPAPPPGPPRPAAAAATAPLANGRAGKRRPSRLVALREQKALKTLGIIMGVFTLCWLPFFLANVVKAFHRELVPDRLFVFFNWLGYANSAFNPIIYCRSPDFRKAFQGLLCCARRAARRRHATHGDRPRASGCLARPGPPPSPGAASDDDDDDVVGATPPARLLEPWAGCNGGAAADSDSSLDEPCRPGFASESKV
Protocol: (§1) A panel of 52 different receptors, ion channels and transporters was tested by Cerep, Inc. (Redmond, WA).

M1 (h) = target: T4, M1 (h) (Homo sapiens, UniProt P11229); test: Cerep panel; format: binding
T4 construct: purchased Cerep (receptors, ion channels, transporters); Eurofins Panlabs (kinases)
T4 sequence (P11229 whole entry): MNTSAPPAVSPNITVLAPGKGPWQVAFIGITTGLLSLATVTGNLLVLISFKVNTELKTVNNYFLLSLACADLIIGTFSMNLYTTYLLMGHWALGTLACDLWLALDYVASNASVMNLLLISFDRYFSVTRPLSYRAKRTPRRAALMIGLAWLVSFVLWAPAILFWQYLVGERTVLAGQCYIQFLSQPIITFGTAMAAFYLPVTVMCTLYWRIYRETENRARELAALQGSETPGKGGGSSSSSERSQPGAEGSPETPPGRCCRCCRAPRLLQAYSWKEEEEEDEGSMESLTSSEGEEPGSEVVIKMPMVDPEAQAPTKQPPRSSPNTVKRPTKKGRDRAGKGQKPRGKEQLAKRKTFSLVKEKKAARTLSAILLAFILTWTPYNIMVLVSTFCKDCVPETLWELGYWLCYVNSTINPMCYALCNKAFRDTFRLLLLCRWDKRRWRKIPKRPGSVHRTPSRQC
Protocol: as §1

M3 (h) = target: T5, M3 (h) (Homo sapiens, UniProt P20309); test: Cerep panel; format: binding
T5 construct: purchased Cerep (receptors, ion channels, transporters); Eurofins Panlabs (kinases)
Protocol: as §1

Y1 (h) = target: T6, Y1 (h) (Homo sapiens, UniProt P25929); test: Cerep panel; format: binding
T6 construct: purchased Cerep (receptors, ion channels, transporters); Eurofins Panlabs (kinases)
T6 sequence (P25929 whole entry): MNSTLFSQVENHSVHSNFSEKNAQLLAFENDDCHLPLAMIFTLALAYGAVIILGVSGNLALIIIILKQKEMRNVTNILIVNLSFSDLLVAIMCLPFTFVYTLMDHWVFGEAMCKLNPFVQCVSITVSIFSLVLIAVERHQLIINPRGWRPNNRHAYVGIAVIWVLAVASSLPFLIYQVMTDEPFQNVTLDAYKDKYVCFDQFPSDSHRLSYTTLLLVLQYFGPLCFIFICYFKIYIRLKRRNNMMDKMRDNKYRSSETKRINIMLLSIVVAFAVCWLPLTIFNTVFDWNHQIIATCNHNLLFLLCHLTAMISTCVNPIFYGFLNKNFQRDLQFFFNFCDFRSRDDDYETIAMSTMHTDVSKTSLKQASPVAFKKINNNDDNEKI
Protocol: as §1

5-HT3 (h) = target: T7, 5-HT3 (h) (Homo sapiens, UniProt P46098); test: Cerep panel; format: binding
T7 construct: purchased Cerep (receptors, ion channels, transporters); Eurofins Panlabs (kinases)
Protocol: as §1

VIP1 (h) (VPAC1) = target: T8, VIP1 (h) (VPAC1) (Homo sapiens, UniProt P32241); test: Cerep panel; format: binding
T8 construct: purchased Cerep (receptors, ion channels, transporters); Eurofins Panlabs (kinases)
T8 sequence (P32241 31-457): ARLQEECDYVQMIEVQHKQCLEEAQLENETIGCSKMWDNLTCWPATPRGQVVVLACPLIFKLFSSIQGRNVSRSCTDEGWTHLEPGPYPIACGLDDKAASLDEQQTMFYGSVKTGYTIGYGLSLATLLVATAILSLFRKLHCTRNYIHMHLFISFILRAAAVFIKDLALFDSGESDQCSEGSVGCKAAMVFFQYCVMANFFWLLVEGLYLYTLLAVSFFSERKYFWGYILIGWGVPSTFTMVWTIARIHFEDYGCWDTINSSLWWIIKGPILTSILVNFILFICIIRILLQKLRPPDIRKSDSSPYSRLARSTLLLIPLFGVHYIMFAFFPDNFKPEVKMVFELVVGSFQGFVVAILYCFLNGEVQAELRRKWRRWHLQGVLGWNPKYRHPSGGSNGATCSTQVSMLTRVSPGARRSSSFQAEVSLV
Protocol: as §1

ADRA2A = ADRA2A (Homo sapiens, UniProt P08913); test: GPCR panel, cAMP or calcium FLIPR assays; format: cell-based
ADRA2A, sequence (P08913 whole entry, species assumed): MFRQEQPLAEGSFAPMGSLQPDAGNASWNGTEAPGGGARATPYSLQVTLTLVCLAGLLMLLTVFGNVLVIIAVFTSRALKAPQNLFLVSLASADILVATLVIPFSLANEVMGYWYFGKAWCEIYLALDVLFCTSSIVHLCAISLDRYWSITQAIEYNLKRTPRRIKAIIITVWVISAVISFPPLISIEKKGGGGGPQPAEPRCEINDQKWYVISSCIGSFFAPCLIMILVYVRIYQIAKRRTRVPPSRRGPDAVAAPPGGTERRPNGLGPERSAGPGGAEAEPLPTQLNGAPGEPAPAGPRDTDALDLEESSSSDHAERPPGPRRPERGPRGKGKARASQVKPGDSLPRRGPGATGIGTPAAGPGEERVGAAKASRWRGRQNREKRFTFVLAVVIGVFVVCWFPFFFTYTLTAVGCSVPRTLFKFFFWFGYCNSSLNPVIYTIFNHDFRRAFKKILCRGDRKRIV
Protocol: (§2) 28 GPCRs were evaluated through cAMP or calcium FLIPR assays[67].

ADRB2 = ADRB2 (Homo sapiens, UniProt P07550); test: GPCR panel, cAMP or calcium FLIPR assays; format: cell-based
Protocol: as §2

CCKA = CCKA (Homo sapiens, UniProt P32238); test: GPCR panel, cAMP or calcium FLIPR assays; format: cell-based
Protocol: as §2

delta = delta (Homo sapiens, UniProt P41143); test: GPCR panel, cAMP or calcium FLIPR assays; format: cell-based
delta, sequence (P41143 whole entry): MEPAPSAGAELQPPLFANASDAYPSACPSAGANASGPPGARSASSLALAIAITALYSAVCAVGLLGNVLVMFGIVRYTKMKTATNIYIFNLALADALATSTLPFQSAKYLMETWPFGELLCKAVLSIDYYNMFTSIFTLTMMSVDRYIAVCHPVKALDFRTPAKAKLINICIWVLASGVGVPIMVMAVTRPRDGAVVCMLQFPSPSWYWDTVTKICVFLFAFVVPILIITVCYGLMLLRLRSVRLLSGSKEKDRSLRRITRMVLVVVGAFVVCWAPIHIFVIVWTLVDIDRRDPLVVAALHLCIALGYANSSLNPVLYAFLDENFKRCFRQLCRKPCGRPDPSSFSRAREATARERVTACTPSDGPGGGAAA
Protocol: as §2

MOP = MOP (Homo sapiens, UniProt P35372); test: GPCR panel, cAMP or calcium FLIPR assays; format: cell-based
Protocol: 28 GPCRs were evaluated through cAMP or calcium FLIPR assays[67]. A panel of 52 different receptors, ion channels and transporters was tested by Cerep, Inc. (Redmond, WA). Kinase selectivity was conducted by Eurofins Panlabs Inc (St Charles, MO).

Aurora-B(h) = target: T9, Aurora-B(h) (Homo sapiens, UniProt Q96GD4); test: Kinase panel; format: biochemical
T9 construct: purchased Cerep (receptors, ion channels, transporters); Eurofins Panlabs (kinases)
T9 sequence (Q96GD4 whole entry): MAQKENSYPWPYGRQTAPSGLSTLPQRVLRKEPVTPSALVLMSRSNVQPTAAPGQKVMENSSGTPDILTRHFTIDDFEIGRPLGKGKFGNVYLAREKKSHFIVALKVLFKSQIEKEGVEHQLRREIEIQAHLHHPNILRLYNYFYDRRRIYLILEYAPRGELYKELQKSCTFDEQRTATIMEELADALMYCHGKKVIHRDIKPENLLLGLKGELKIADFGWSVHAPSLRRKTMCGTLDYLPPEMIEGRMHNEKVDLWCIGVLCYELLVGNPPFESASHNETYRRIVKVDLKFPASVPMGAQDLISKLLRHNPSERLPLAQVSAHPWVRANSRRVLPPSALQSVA
Protocol: (§3) Kinase selectivity was conducted by Eurofins Panlabs Inc (St Charles, MO).

CDK1/cyclinB(h) = target: T10, CDK1/cyclinB(h) (Homo sapiens, UniProt P06493); test: Kinase panel; format: biochemical
T10 construct: purchased Cerep (receptors, ion channels, transporters); Eurofins Panlabs (kinases)
T10 sequence (P06493 whole entry): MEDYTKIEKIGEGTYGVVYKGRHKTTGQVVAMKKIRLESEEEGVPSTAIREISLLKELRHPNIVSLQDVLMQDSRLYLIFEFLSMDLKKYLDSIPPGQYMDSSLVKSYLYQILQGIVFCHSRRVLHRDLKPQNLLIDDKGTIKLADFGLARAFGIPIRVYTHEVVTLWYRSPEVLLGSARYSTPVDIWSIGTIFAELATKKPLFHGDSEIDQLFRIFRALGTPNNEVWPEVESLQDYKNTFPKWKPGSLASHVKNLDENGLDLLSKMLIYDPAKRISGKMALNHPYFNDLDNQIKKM
T10 sequence (P14635 whole entry partner): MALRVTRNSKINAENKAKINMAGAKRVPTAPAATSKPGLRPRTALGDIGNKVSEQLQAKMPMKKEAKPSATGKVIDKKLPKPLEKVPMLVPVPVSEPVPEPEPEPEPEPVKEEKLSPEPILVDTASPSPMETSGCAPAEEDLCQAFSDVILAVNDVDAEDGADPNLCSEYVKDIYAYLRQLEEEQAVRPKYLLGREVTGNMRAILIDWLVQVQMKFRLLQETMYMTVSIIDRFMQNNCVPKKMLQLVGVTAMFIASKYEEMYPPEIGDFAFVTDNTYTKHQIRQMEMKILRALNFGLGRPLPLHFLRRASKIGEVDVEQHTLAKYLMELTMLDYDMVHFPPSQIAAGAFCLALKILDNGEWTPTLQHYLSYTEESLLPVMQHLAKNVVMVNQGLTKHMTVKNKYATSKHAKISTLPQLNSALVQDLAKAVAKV
Protocol: as §3

CDK5/p35(h) = target: T11, CDK5/p35(h) (Homo sapiens, UniProt Q00535); test: Kinase panel; format: biochemical
T11 construct: purchased Cerep (receptors, ion channels, transporters); Eurofins Panlabs (kinases)
Protocol: as §3

CHK2(h) = target: T12, CHK2(h) (Homo sapiens, UniProt O96017); test: Kinase panel; format: biochemical
T12 construct: purchased Cerep (receptors, ion channels, transporters); Eurofins Panlabs (kinases)
Protocol: as §3

cSRC(h) = target: T13, cSRC(h) (Homo sapiens, UniProt P12931); test: Kinase panel; format: biochemical
T13 construct: purchased Cerep (receptors, ion channels, transporters); Eurofins Panlabs (kinases)
Protocol: as §3

FGFR1(h) = target: T14, FGFR1(h) (Homo sapiens, UniProt P11362); test: Kinase panel; format: biochemical
T14 construct: purchased Cerep (receptors, ion channels, transporters); Eurofins Panlabs (kinases)
T14 sequence (P11362 22-822): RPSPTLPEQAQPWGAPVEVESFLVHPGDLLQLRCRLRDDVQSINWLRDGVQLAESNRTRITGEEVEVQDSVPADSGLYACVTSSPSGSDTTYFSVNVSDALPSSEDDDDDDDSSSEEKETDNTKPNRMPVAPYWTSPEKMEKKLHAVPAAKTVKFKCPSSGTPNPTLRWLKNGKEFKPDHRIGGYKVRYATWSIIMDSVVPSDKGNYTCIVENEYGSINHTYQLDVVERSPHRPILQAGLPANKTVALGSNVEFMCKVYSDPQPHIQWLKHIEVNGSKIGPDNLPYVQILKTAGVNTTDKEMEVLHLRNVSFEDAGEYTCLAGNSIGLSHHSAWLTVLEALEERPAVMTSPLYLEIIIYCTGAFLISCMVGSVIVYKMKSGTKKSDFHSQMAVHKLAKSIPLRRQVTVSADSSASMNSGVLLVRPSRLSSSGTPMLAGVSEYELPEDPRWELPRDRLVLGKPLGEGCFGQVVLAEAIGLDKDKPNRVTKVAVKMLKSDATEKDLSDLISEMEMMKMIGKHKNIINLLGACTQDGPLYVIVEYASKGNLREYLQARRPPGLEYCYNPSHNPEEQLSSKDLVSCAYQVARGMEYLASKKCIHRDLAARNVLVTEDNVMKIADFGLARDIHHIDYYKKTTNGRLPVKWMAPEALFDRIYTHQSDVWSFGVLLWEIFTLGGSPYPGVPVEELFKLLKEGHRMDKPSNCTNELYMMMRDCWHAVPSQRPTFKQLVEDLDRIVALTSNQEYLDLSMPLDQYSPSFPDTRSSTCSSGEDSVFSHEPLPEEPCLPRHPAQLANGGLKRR
Protocol: as §3

Flt3(h) = target: T15, Flt3(h) (Homo sapiens, UniProt P36888); test: Kinase panel; format: biochemical
T15 construct: purchased Cerep (receptors, ion channels, transporters); Eurofins Panlabs (kinases)
Protocol: as §3

NEK2(h) = target: T16, NEK2(h) (Homo sapiens, UniProt P51955); test: Kinase panel; format: biochemical
T16 construct: purchased Cerep (receptors, ion channels, transporters); Eurofins Panlabs (kinases)
Protocol: as §3

PDGFRβ(h) = target: T17, PDGFRβ(h) (Homo sapiens, UniProt P09619); test: Kinase panel; format: biochemical
T17 construct: purchased Cerep (receptors, ion channels, transporters); Eurofins Panlabs (kinases)
Protocol: as §3

Pim-2(h) = target: T18, Pim-2(h) (Homo sapiens, UniProt Q9P1W9); test: Kinase panel; format: biochemical
T18 construct: purchased Cerep (receptors, ion channels, transporters); Eurofins Panlabs (kinases)
Protocol: as §3

NK2 = NK2 (Homo sapiens, UniProt P21452); test: follow-up functional study; format: cell-based
NK2, sequence (P21452 whole entry): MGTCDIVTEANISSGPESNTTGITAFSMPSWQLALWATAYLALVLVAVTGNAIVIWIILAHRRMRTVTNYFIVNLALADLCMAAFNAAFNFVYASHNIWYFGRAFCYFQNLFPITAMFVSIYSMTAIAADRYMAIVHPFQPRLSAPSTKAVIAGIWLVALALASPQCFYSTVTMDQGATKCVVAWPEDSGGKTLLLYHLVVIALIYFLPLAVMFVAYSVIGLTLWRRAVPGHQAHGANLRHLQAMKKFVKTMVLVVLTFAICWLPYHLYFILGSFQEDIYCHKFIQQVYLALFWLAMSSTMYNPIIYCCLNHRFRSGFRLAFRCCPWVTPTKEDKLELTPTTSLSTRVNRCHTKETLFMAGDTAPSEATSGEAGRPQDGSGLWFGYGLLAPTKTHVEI

human whole blood = test: in vitro whole blood assay, IL-17A production; format: cell-based; conditions: human whole blood diluted 1:1; read-out: IC50, inhibition of IL-17A production
rat bone marrow = test: in vivo rat micronucleus test on bone marrow
rabbit fetal development = test: rabbit embryo-fetal study; format: in vivo
Protocol: Therefore, SAD was dosed only up to 200 mg.

dogs = test: chronic dosing up to 9 months in dogs; format: in vivo; conditions: dog, data not shown, reversible
From the text: This is consistent with the reported physiological role of RORγt as a critical molecule in controlling the survival of thymocytes[7],[66]. JNJ-61803534-induced thymocyte apoptosis was reversible and was deemed non-adverse alterations.

[1] = system: human CD4+ T cells under Th1 conditions; test: in vitro human Th1 differentiation, IFNγ production
Protocol: On day 4, supernatants were analyzed for IL-17A, IL-17F, IL-22 and IFNγ production.
Total CD4^+ T cells were isolated from peripheral blood mononuclear cells (PBMCs) of healthy donors using a CD4^+ T cell Isolation Kit II (Miltenyl Biotec, Auburn, CA), following the manufacturer’s instructions.
In vitro human Th17 and Th1 differentiation
Total CD4+ T cells were isolated from the peripheral blood mononuclear cells (PBMCs) of healthy donors
using a CD4+ T cell Isolation Kit II (Miltenyl Biotec, Auburn, CA), following the manufacturer’s
instructions. Isolated T cells were resuspended in culture medium and added to a 96-well plate at 1×105
beads (prepared using human T cell activation/expansion kit, Miltenyi Biotec) at final concentration of
3x10^6/mL, and cocktail for either Th17 differentiation (10 µg/mL anti-IL-4, 10 µg/mL anti-IFN, 10 ng/mL
IL-1β, 10 ng/mL IL-23, 50 ng/mL IL-6, 3 ng/mL TGFβ and 20 U/mL IL-2), or for Th1 differentiation (10
µg/mL anti-IL-4, 10 ng/mL IL-12, and 20 U/mL IL-2). Cells were cultured at 37°C and 5% CO2 for 3 days.
Supernatants were assayed for accumulated cytokines using MSD multi-spot assay (Meso Scale
Discovery, Rockville, MD) or R&D ELISA kit.

## CC1CCCN1C(=O)c1nc(C(=O)NCC(C)(C)O)sc1-c1ccc(C(O)(C(F)(F)F)C(F)(F)F)c(Cl)c1Cl (stereo not drawn) [JNJ-61803534]
PPARβ
  IC50: > 1.5 µM
RXRα
  IC50: > 1.5 µM
Beta 1 (h)
  inhibition at 1 µM: < 10%
  inhibition at 10 µM: < 10%
M1 (h)
  inhibition at 1 µM: < 10%
  inhibition at 10 µM: < 10%
M3 (h)
  inhibition at 1 µM: < 10%
  inhibition at 10 µM: < 10%
Y1 (h)
  inhibition at 1 µM: < 10%
  inhibition at 10 µM: < 10%
5-HT3 (h)
  inhibition at 1 µM: < 10%
  inhibition at 10 µM: < 10%
VIP1 (h) (VPAC1)
  inhibition at 1 µM: < 10%
  inhibition at 10 µM: < 10%
ADRA2A; agonist
  EC50: > 12.5 µM
ADRA2A; antagonist
  IC50: > 12.5 µM
ADRB2; agonist
  EC50: > 12.5 µM
ADRB2; antagonist
  IC50: > 12.5 µM
CCKA; agonist
  EC50: > 10 µM
CCKA; antagonist
  IC50: > 10 µM
delta; agonist
  EC50: > 12.5 µM
delta; antagonist
  IC50: > 12.5 µM
MOP; agonist
  EC50: > 12.5 µM
MOP; antagonist
  IC50: > 12.5 µM
Aurora-B(h)
  activity at 1 µM: 124%
  activity at 10 µM: 145%
CDK1/cyclinB(h)
  activity at 1 µM: 96%
  activity at 10 µM: 108%
CDK5/p35(h)
  activity at 1 µM: 97%
  activity at 10 µM: 107%
CHK2(h)
  activity at 1 µM: 107%
  activity at 10 µM: 111%
cSRC(h)
  activity at 1 µM: 78%
  activity at 10 µM: 80%
FGFR1(h)
  activity at 1 µM: 103%
  activity at 10 µM: 125%
Flt3(h)
  activity at 1 µM: 84%
  activity at 10 µM: 103%
NEK2(h)
  activity at 1 µM: 102%
  activity at 10 µM: 108%
PDGFRβ(h)
  activity at 1 µM: 103%
  activity at 10 µM: 143%
Pim-2(h)
  activity at 1 µM: 102%
  activity at 10 µM: 107%
NK2; read-out: IC50 in follow up functional assays
  IC50: > 30 µM
NK2; up to 30 µM
  effect on NK2 in follow-up functional studies: no effect
Human whole blood
  IC50: 0.23 ± 0.11 µM
Rat bone marrow
  genetic toxicity: negative
Rabbit fetal development
  effect on fetal development: fetal development was impacted
dogs
  thymus finding: increase in medium-sized thymocytes/mitoses
[1]
  inhibition of IFNγ production: no inhibition; also recorded: did not inhibit
